Test system: patients with uHTN
Test: Study 124 Part 2: 2 mg baxdrostat monotherapy for 4 weeks, SBP and safety
Format: in vivo, human
Details: for AESI, % / AESI, e - Number of events / AESI, n - Number of subjects / SAEs, % / SAEs, e - Number of events / SAEs, n - Number of subjects / TEAEs Drug-Related, % / TEAEs Drug-Related, e - Number of events / TEAEs Drug-Related, n - Number of subjects / TEAEs Leading to death, % / TEAEs Leading to death, e - Number of events / TEAEs Leading to death, n - Number of subjects / TEAEs Leading to dosing discontinuation, % / TEAEs Leading to dosing discontinuation, e - Number of events / TEAEs Leading to dosing discontinuation, n - Number of subjects / TEAEs Leading to study discontinuation, % / TEAEs Leading to study discontinuation, e - Number of events / TEAEs Leading to study discontinuation, n - Number of subjects / TEAEs, % / TEAEs, e - Number of events / TEAEs, n - Number of subjects: Part 2
Protocol: Study 124 is a double-blind, placebo-controlled, dose range finding, multicenter study conducted in patients with uHTN receiving background antihypertensive agent(s) that are either an ACEI or an ARB, an ACEI/ARB plus a thiazide diuretic, or an ACEI/ARB plus a calcium channel blocker. The study consists of two parts: Part 1 consists of an 8-week treatment period in which the patients are to be assigned to one of 4 dose groups in equal ratio testing 0.5 mg, 1 mg, and 2 mg baxdrostat effects compared to a placebo. Patients are to administer double-blind baxdrostat tablets once per day while they continue taking the background antihypertensive medications. After 8 weeks of double-blind treatment, patients were to enter part 2 of the study unless the patient was assigned to the 2 mg group and the SBP remains ≥130 mmHg. In part 2 of the study, all patients are to cease dosing with background antihypertensive medication and take only baxdrostat 2 mg dose as a monotherapy for 4 weeks.
The secondary objectives are to evaluate the change from baseline in mean seated DBP with each of the selected dose strengths of baxdrostat compared to placebo after 8 weeks of treatment (Part 1), the change from baseline in 24-hour urine aldosterone and serum aldosterone levels with each of the selected dose strengths of baxdrostat compared to placebo after 8 weeks of treatment (Part 1), the percentage of patients achieving a mean seated SBP<130 mmHg (“responders”) with each of the selected dose strengths of baxdrostat compared to placebo after 8 weeks; and the change from baseline in 24-hour urine renin and serum renin levels with baxdrostat compared to placebo after 8 weeks of treatment. Patients who have completed the Part 2 study through Week 12 or who were considered withdrawn at the end of Part 1 may be eligible to enter a separate open label extension study (Study 130). Part 2 is an exploratory phase of the trial designed to evaluate the effect of 4 weeks of monotherapy with 2 mg baxdrostat in this hypertensive population, but the major goal of the Part 2 period is to transition patients to a long-term open label safety extension study of baxdrostat at the highest dose likely to be used in the hypertension population.
In Part 2, background antihypertensive therapy was discontinued following Part 1, and patients took two mg Baxdrostat for four additional weeks. […] There were two cases of moderate hyperkalemia with K+>/=6.0 mEq/L in the 213 patients in Part 2; both patients had stopped diuretic at the start of Part 2 and developed transient moderate hyperkalemia within 2 weeks.

CCC(=O)N[C@@H]1CCCc2c(-c3ccc4c(c3)CCC(=O)N4C)cncc21 [baxdrostat, (R)—N-(4-(1-methyl-2-oxo-1,2,3,4-tetrahydroquinolin-6-yl)-5,6,7,8-tetrahydroisoquinolin-8-yl) propionamide]
SBP between the start and the end of the four weeks (2 mg only, after withdrawal of background medication): remained stable
safety and tolerability (2 mg, 213 patients who entered Part 2): safe and well-tolerated
cases of moderate hyperkalemia with K+ >/=6.0 mEq/L (213 patients in Part 2): two cases
treatment emergent SAEs (Part 2, 2 mg): 4 events/3 patients with none deemed related to baxdrostat
AESI, % (0.5 mg to 2 mg, n = 63): 0%
AESI, e - Number of events (0.5 mg to 2 mg, n = 63): 0
AESI, n - Number of subjects (0.5 mg to 2 mg, n = 63): 0
SAEs, % (0.5 mg to 2 mg, n = 63): 0.0%
SAEs, e - Number of events (0.5 mg to 2 mg, n = 63): 0
SAEs, n - Number of subjects (0.5 mg to 2 mg, n = 63): 0
TEAEs Drug-Related, % (0.5 mg to 2 mg, n = 63): 5.6%
TEAEs Drug-Related, e - Number of events (0.5 mg to 2 mg, n = 63): 4
TEAEs Drug-Related, n - Number of subjects (0.5 mg to 2 mg, n = 63): 3
TEAEs Leading to death, % (0.5 mg to 2 mg, n = 63): 0.0%
TEAEs Leading to death, e - Number of events (0.5 mg to 2 mg, n = 63): 0
TEAEs Leading to death, n - Number of subjects (0.5 mg to 2 mg, n = 63): 0
TEAEs Leading to dosing discontinuation, % (0.5 mg to 2 mg, n = 63): 0%
TEAEs Leading to dosing discontinuation, e - Number of events (0.5 mg to 2 mg, n = 63): 0
TEAEs Leading to dosing discontinuation, n - Number of subjects (0.5 mg to 2 mg, n = 63): 0
TEAEs Leading to study discontinuation, % (0.5 mg to 2 mg, n = 63): 0.0%
TEAEs Leading to study discontinuation, e - Number of events (0.5 mg to 2 mg, n = 63): 0
TEAEs Leading to study discontinuation, n - Number of subjects (0.5 mg to 2 mg, n = 63): 0
TEAEs, % (0.5 mg to 2 mg, n = 63): 16.7%
TEAEs, e - Number of events (0.5 mg to 2 mg, n = 63): 15
TEAEs, n - Number of subjects (0.5 mg to 2 mg, n = 63): 9
AESI, % (1 mg to 2 mg, n = 62): 1.8%
AESI, e - Number of events (1 mg to 2 mg, n = 62): 1
AESI, n - Number of subjects (1 mg to 2 mg, n = 62): 1
SAEs, % (1 mg to 2 mg, n = 62): 1.8%
SAEs, e - Number of events (1 mg to 2 mg, n = 62): 2
SAEs, n - Number of subjects (1 mg to 2 mg, n = 62): 1
TEAEs Drug-Related, % (1 mg to 2 mg, n = 62): 8.8%
TEAEs Drug-Related, e - Number of events (1 mg to 2 mg, n = 62): 6
TEAEs Drug-Related, n - Number of subjects (1 mg to 2 mg, n = 62): 5
TEAEs Leading to death, % (1 mg to 2 mg, n = 62): 0.0%
TEAEs Leading to death, e - Number of events (1 mg to 2 mg, n = 62): 0
TEAEs Leading to death, n - Number of subjects (1 mg to 2 mg, n = 62): 0
TEAEs Leading to dosing discontinuation, % (1 mg to 2 mg, n = 62): 3.5%
TEAEs Leading to dosing discontinuation, e - Number of events (1 mg to 2 mg, n = 62): 3
TEAEs Leading to dosing discontinuation, n - Number of subjects (1 mg to 2 mg, n = 62): 2
TEAEs Leading to study discontinuation, % (1 mg to 2 mg, n = 62): 0.0%
TEAEs Leading to study discontinuation, e - Number of events (1 mg to 2 mg, n = 62): 0
TEAEs Leading to study discontinuation, n - Number of subjects (1 mg to 2 mg, n = 62): 0
TEAEs, % (1 mg to 2 mg, n = 62): 21.1%
TEAEs, e - Number of events (1 mg to 2 mg, n = 62): 26
TEAEs, n - Number of subjects (1 mg to 2 mg, n = 62): 12
AESI, % (2 mg, n = 60): 2.4%
AESI, e - Number of events (2 mg, n = 60): 1
AESI, n - Number of subjects (2 mg, n = 60): 1
SAEs, % (2 mg, n = 60): 0%
SAEs, e - Number of events (2 mg, n = 60): 0
SAEs, n - Number of subjects (2 mg, n = 60): 0
TEAEs Drug-Related, % (2 mg, n = 60): 0%
TEAEs Drug-Related, e - Number of events (2 mg, n = 60): 0
TEAEs Drug-Related, n - Number of subjects (2 mg, n = 60): 0
TEAEs Leading to death, % (2 mg, n = 60): 0.0%
TEAEs Leading to death, e - Number of events (2 mg, n = 60): 0
TEAEs Leading to death, n - Number of subjects (2 mg, n = 60): 0
TEAEs Leading to dosing discontinuation, % (2 mg, n = 60): 0%
TEAEs Leading to dosing discontinuation, e - Number of events (2 mg, n = 60): 0
TEAEs Leading to dosing discontinuation, n - Number of subjects (2 mg, n = 60): 0
TEAEs Leading to study discontinuation, % (2 mg, n = 60): 0.0%
TEAEs Leading to study discontinuation, e - Number of events (2 mg, n = 60): 0
TEAEs Leading to study discontinuation, n - Number of subjects (2 mg, n = 60): 0
TEAEs, % (2 mg, n = 60): 16.7%
TEAEs, e - Number of events (2 mg, n = 60): 9
TEAEs, n - Number of subjects (2 mg, n = 60): 7
AESI, % (Placebo to 2 mg, n = 64): 1.7%
AESI, e - Number of events (Placebo to 2 mg, n = 64): 2
AESI, n - Number of subjects (Placebo to 2 mg, n = 64): 1
SAEs, % (Placebo to 2 mg, n = 64): 3.3%
SAEs, e - Number of events (Placebo to 2 mg, n = 64): 2
SAEs, n - Number of subjects (Placebo to 2 mg, n = 64): 2
TEAEs Drug-Related, % (Placebo to 2 mg, n = 64): 5.0%
TEAEs Drug-Related, e - Number of events (Placebo to 2 mg, n = 64): 5
TEAEs Drug-Related, n - Number of subjects (Placebo to 2 mg, n = 64): 3
TEAEs Leading to death, % (Placebo to 2 mg, n = 64): 0.0%
TEAEs Leading to death, e - Number of events (Placebo to 2 mg, n = 64): 0
TEAEs Leading to death, n - Number of subjects (Placebo to 2 mg, n = 64): 0
TEAEs Leading to dosing discontinuation, % (Placebo to 2 mg, n = 64): 0%
TEAEs Leading to dosing discontinuation, e - Number of events (Placebo to 2 mg, n = 64): 0
TEAEs Leading to dosing discontinuation, n - Number of subjects (Placebo to 2 mg, n = 64): 0
TEAEs Leading to study discontinuation, % (Placebo to 2 mg, n = 64): 0.0%
TEAEs Leading to study discontinuation, e - Number of events (Placebo to 2 mg, n = 64): 0
TEAEs Leading to study discontinuation, n - Number of subjects (Placebo to 2 mg, n = 64): 0
TEAEs, % (Placebo to 2 mg, n = 64): 21.7%
TEAEs, e - Number of events (Placebo to 2 mg, n = 64): 24
TEAEs, n - Number of subjects (Placebo to 2 mg, n = 64): 13
AESI, % (Total, n = 249): 1.4%
AESI, e - Number of events (Total, n = 249): 4
AESI, n - Number of subjects (Total, n = 249): 3
SAEs, % (Total, n = 249): 1.4%
SAEs, e - Number of events (Total, n = 249): 4
SAEs, n - Number of subjects (Total, n = 249): 3
TEAEs Drug-Related, % (Total, n = 249): 5.2%
TEAEs Drug-Related, e - Number of events (Total, n = 249): 15
TEAEs Drug-Related, n - Number of subjects (Total, n = 249): 11
TEAEs Leading to death, % (Total, n = 249): 0.0%
TEAEs Leading to death, e - Number of events (Total, n = 249): 0
TEAEs Leading to death, n - Number of subjects (Total, n = 249): 0
TEAEs Leading to dosing discontinuation, % (Total, n = 249): 0.9%
TEAEs Leading to dosing discontinuation, e - Number of events (Total, n = 249): 3
TEAEs Leading to dosing discontinuation, n - Number of subjects (Total, n = 249): 2
TEAEs Leading to study discontinuation, % (Total, n = 249): 0.0%
TEAEs Leading to study discontinuation, e - Number of events (Total, n = 249): 0
TEAEs Leading to study discontinuation, n - Number of subjects (Total, n = 249): 0
TEAEs, % (Total, n = 249): 19.2%
TEAEs, e - Number of events (Total, n = 249): 74
TEAEs, n - Number of subjects (Total, n = 249): 41
